Assay results taken from patent publication US20070092444A1, “Inhibition of inward sodium currents in cancer” (priority 2003, published 2007).
“Also recorded” adds a separate entry of the source.

Columns and labels:
[1] = test system: constitutive amiloride-sensitive inward Na^+ current in high-grade glioma (GBM) cells; assay: Whole-cell patch clamp, freshly resected and primary cultured high-grade glioma (Grade III/IV, GBM) cells; type: cell-based, human
Description: (§1) FIGS. 2A-C show representative whole-cell patch clamp recordings.
(§2) FIGS. 4A and B show summary I-V curves of freshly resected normal astrocytes (FIG. 4A) and GBM cells (FIG. 4B). Inward currents (−60 mV) were −7.5±1.2 pA (normal) and −43.8±14.5 pA (GBM). Outward currents (+40 mV) averaged 42.2±2.4 pA and 47.2±12.5 pA for normal and GBMs, respectively. FIGS. 4C and D show summary amiloride-sensitive (difference) currents of freshly resected normal astrocytes (FIG. 4C) and GBM cells (FIG. 4D).
(§3) A constitutive amiloride-sensitive inward Na^+ conductance has been reported in human high-grade glioma cells. […] These inward Na^+ currents were not present in normal astrocytes or in low-grade astrocytomas (e.g., pilocytic astrocytomas). However, the composition of the channels responsible for the inward Na^+ conductance has not been reported. FIGS. 2A-C show representative whole cell patch-clamp measurements on tissue derived from a freshly resected human glioblastoma multiforme (GBM; WHO grade IV), normal astrocytes obtained from patients undergoing surgery for intractable epilepsy, and primary cultures of different grade glial tumors. […] However, there was no significant inward Na^+ current in normal astrocytes and Grades I and II astrocytoma cells (FIG. 2C).
Summary current-voltage (I-V) curves are presented for normal astrocytes and GBM cells in FIG. 4A and FIG. 4B, respectively, while difference I-V curves for normal astrocytes and GBM cells are presented in FIG. 4C and FIG. 4D, respectively. The GBM cells are depolarized by an average of 31 mV compared to the normal astrocytes under these recording conditions. The depolarized zero current membrane potential is due to the presence of an enhanced Na^+ conductance as is shown in the difference I-V curves.
(§4) FIG. 19A show representative whole-cell patch clamp recordings of ZR-75-1 and SKMEL-2 cells in the basal state.

[2] = test system: whole-cell currents of normal human astrocytes; assay: Whole-cell patch clamp, normal human astrocytes; type: cell-based
Description: as §1, §2
as §3, with “2C). […]” for “2C).”

[3] = test system: inward Na^+ currents in SK-MG cells; assay: Whole-cell patch clamp, SK-MG glioma cells; type: cell-based, human
Description: (§5) FIGS. 7A-7C show representative whole-cell patch clamp recordings.
(§6) The amiloride-sensitive inward Na^+ currents are measured regardless of whether ASIC2 is absent or present (FIGS. 7A-D). Whole-cell patch clamp recordings were obtained from U87-MG, SK-MG, and D54-MG glioma cells in the basal state. […] This inhibition of the inward current occurred regardless of the absence or presence of ASIC2 mRNA (FIG. 7D) (as detected by RT-PCR as described above).
as §4

[4] = test system: inward Na^+ currents in U87-MG cells; assay: Whole-cell patch clamp, U87-MG glioma cells; type: cell-based, human
Description: as §5, §6, §4

[5] = test system: constitutive inward Na^+ current of ZR-75-1 breast carcinoma cells; assay: Whole-cell patch clamp, ZR-75-1 breast carcinoma cells; type: cell-based
Description: (§7) FIGS. 5A-5C show representative whole-cell patch clamp recordings.
(§8) FIGS. 19A-19C show representative whole-cell patch clamp recordings.
(§9) A constitutive amiloride-sensitive inward Na^+ conductance was also observed in the breast carcinoma cell line ZR-75-1 and the melanoma cell line SKMEL-2. FIGS. 5A-C show representative whole cell patch-clamp measurements on ZR-75-1 cells and SKMEL-2 cells.
as §4

[6] = test system: constitutive inward Na^+ current of SKMEL-2 melanoma cells; assay: Whole-cell patch clamp, SKMEL-2 melanoma cells; type: cell-based
Description: as §7, §8, §9, §4

[7] = test system: ASIC containing channel activity in U87-MG cells; assay: Single channel recording, outside-out patches from U87-MG cells; type: cell-based, human; conditions: 100 μM amiloride
Description: FIGS. 23A and B show single channel records of ASIC-containing channel activity in cell attached (FIG. 23A) and outside-out patches (FIG. 23B) from U87-MG cells.
Single channel recording of ASIC containing channel activity in both cell-attached and outside-out patches from U-87MG cells are shown in FIGS. 23A and B, respectively. For cell-attached patches, the pipette solution contained RPMI 1640, matching the external bath solution used for all whole-cell clamped records. For outside-out patches the pipette solution contained (in mM) K-gluconate, 100; KCl, 30; NaCl, 10; HEPES, 20; EGTA, 0.5; ATP, 4; pH 7.2. Membrane potentials for cell-attached patches were determined as the applied potential plus the membrane potential of the cell that was measured in the whole-cell configuration as −60 mV using the pipette solution for outside-out patches. The membrane potential for outside-out patches was the equilibrium potential for sodium plus the applied potential. The average single channel conductance in the cell-attached configuration was 5.7±0.5 pS. This average conductance was calculated from each of the clamp potentials. This was compatible with the observed whole-cell currents. The kinetics of channel opening and closing were relatively slow (on the order of 0.1 to 1 s), consistent to what has been observed for ASIC-like channels in bilayers (FIG. 23A).

ASIC2 = molecular target: T1, ASIC2 (Homo sapiens, UniProt Q16515); assay: Acid-activated currents in voltage-clamped Xenopus oocytes expressing ASIC2; type: cell-based; parameters: expressed in transfected cells; host or cells: Xenopus oocytes (cRNA injection); conditions: pHo 4.0, −60 mV
T1 sequence (Q16515 1-512): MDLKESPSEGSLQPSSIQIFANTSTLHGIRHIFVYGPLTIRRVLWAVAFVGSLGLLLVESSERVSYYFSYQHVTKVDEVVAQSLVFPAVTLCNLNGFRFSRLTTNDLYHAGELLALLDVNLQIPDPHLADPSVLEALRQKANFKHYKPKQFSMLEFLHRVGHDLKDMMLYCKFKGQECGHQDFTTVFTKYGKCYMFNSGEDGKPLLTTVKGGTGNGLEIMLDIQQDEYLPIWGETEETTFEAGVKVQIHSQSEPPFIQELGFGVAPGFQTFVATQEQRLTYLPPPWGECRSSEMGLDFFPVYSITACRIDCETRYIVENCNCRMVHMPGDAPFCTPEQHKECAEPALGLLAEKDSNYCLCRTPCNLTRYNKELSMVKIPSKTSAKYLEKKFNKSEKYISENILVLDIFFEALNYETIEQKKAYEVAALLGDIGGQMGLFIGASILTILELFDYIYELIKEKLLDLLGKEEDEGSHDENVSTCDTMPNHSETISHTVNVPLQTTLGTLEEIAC
Description: FIGS. 8A-C show acid-activated ASIC currents in Xenopus oocytes. ASIC 2 (FIG. 8A), ASIC1 (FIG. 8B) and the combination of ASIC2 and ASIC1 (FIG. 8C) were examined. […] Each oocyte served as its own control.
(§10) Membrane potential was held at −60 mV, and the pHo was step decreased to 4.0 for 10 s, and then returned to 7.4 for 30 s before repeating the sequence.
Xenopus oocytes were used to express ASIC1 and ASIC2 mRNA individually and in combination. Oocyte preparation, cRNA injection, and two-electrode voltage clamp recordings were performed as described (33,67-69).
as §10

Compound	inhibition of inward Na^+ currents ([1]; 100 μM amiloride, Grade III and IV tumor cells, GBM)	effect on currents ([2]; 100 μM amiloride, normal astrocytes)	inhibition of inward Na^+ currents ([3]; 100 μM amiloride)	inhibition of inward Na^+ currents ([4]; 100 μM amiloride)	inhibition of inward currents ([5]; 100 μM amiloride)	inhibition of inward currents ([6]; 100 μM amiloride)	inhibition of channels [7]	inhibition of acid-activated currents (ASIC2; 400 μM amiloride)	block of constitutive inward Na^+ current ([1]; 10 nM peptide, freshly resected GBM)	block of inward basally activated currents ([1]; primary cultured GBM)	effect on whole-cell currents ([2]; PcTX1 (10 nM, FIG. 18B), normal human astrocytes)	block of constitutive inward Na^+ current ([3]; 10 nM peptide)	block of inward basally activated currents [4]	block of constitutive inward Na^+ current ([5]; 10 nM synthetic PcTX1)	block of constitutive inward Na^+ current ([6]; 10 nM synthetic PcTX1)	block of acid-induced inward currents (ASIC2; 1 nM peptide (FIG. 20))
N=C(N)NC(=O)c1nc(Cl)c(N)nc1N [amiloride]	completely inhibited; also recorded: blocked; also recorded: significantly inhibited	did not affect	inhibited; also recorded: likewise blocked	inhibited; also recorded: likewise blocked	completely inhibited	completely inhibited	completely inhibited	inhibited	–	–	–	–	–	–	–	–
Psalmotoxin 1 [PcTX1]	–	–	–	–	–	–	–	–	blocked	similarly blocked	without effect	blocked	similarly blocked	blocked	blocked	not those inward Na^+ currents mediated by ASIC2; also recorded: not the inward currents mediated by ASIC2
